By pIC50 is commonly meant the IC50 on a negative log10 scale, so that one unit is a factor of ten.

pIC50: −log10 of the molar value. Where only a bound is given, the exact number is not on record here.

Results on two compounds are retold here after US11319331B2, “Probe for selective detection of hypochlorous acid (HOCl) under physiological condition, and related methods” (Council of Scientific & Industrial Research, priority 2017, dated 2022).

The conditions of experiment [1]: S/N=3 where stated; cited from earlier work.
The procedure of experiment [2]: (§1) Unless and otherwise mentioned, 10 mM and pH 7.2 solution of aq. PBS buffer was used for all spectroscopic studies. All reactive Oxygen species and nitrogen species solutions of 1×10^-2 M were prepared in PBS having pH 7.2 and used with appropriate dilution. All luminescence measurements were done using λEx=550 nm with an emission slit width of 2/2 nm. For all biological studies, 0.6% DMSO in DMEM media was used.
The detection limit was calculated based on the fluorescence titration.

The conditions of experiment [3]: SF-1 10 μM, 2 mM HOCl, PBS-acetonitrile (9:1, v/v), pH 7.2, 37° C. The procedure: Accordingly, all studies are carried out at physiological relevant pH […].
as §1

Experiment [4] has as its system RAW 264.7 cells. As to the kind of experiment: MTT assay, in vitro cytotoxicity / cell viability. The conditions noted are these: read-out: IC50 (MTT cell viability), treated 24 hours. For orientation: Tetrazolium assays rely on reduction of a dye to a coloured formazan, in cell work by metabolically active cells.

Regarding `CC1=CC(C)=[N+]2C1=C(CCc1[nH]c(C)cc1C)c1c(C)cc(C)n1[B-]2(F)F` [BClO], in experiment [1], the “detection limit for HOCl/HClO (literature)” value is listed as 0.56 nM.
On to “E)-4-(2-(5,5-difluoro-1,7,9-trimethyl-10-phenyl-5H-5λ^4,6λ^4-dipyrrolo[1,2-c:2′,1′-f][1,3,2]diazaborinin-3-yl)vinyl)benzene-1,2-diol [SF-1]”, for which, in experiment [2] (aq. PBS buffer-acetonitrile (9:1, v/v), 3 s method), the “detection limit for HOCl” value worked out at 4.3 nM. Besides, the “Detection Limit for HOCl (DL=K*Sb1/S, K=3)” value in experiment [2] (slope 2.50×109, Sb1 3.59) amounted to 4.3 nM. Besides, the “enhancement of luminescence intensity with increasing dose of HOCl” value in experiment [2] (λEm Max 580 nm, λExt 540 nm) came to 20 fold. In addition, the “time to completion of reaction with HOCl” value in experiment [3] is recorded as no more than 15 min. For the same compound, the pIC50 in experiment [4] is less than 3.82.
